The text below walks through data of patent US12661410B2, “Compounds for targeted degradation of RET” (C4 Therapeutics, Inc., priority 2020, dated 2026).

Data set [1] addresses T1, RET (Homo sapiens, UniProt P07949).
T1 construct: from tissue; host or cells: CR2518 PDX brain tumours in female BALB/c nude mice; the other entry of the earlier key: CCDC6 (Q16204, Coiled-coil domain-containing protein 6)
In words: RET protein level in CR^2518 brain tumors (western blot). It is filed as in vivo, mice. The following applies: single IV dose 5 mg/kg or 30 mg/kg, at 5 hours. Here is the method:
(§1) For intracranial PDX model CR^2518, tumors were first grown in stock mice, then tumor fragments were harvested and digested for cell suspension preparation. 5×10^5 CR^2518 cells in 4 μl PBS were injected intracranially over 5 min, 2.5 mm intraparenchymally, 2 mm lateral from and 0.5 mm anterior to the bregma for tumor development in female BALB/c nude mice. With the appearance of clinical signs (body weight loss, inactivity), mice were randomized into groups of 3, stratified to result in about equal average body weight, and dosing was initiated on Day 0.
(§2) Compound 122 was formulated in 40% PEG400 and 60% of 10% hydroxypropyl beta cyclodextrin (HPPCD) in double distilled water, which was also used for the vehicle group. […] Tumor volume was measured in two dimensions using calipers, and volume (mm^3) was calculated using the formula: V=0.5 a×b^2 where a and b are the long and short diameters of the tumor in mm, respectively.
(§3) 3 tumors and plasma samples were collected per each time point sampled. For pharmacokinetic analysis, plasma and tumor samples were injected into LC/MS/MS system for quantitative analysis. […] Protein concentration was quantified using a Pierce™ BCA Protein Assay Kit, samples were reduced, and equal protein amounts were then loaded onto a western blot gel for analysis. […]

The target of data set [2] is T2, RET(KD: 658-1114 G810R) (Homo sapiens, UniProt P07949, G810R).
T2 construct: 658-1114; expressed in transfected cells; host or cells: 293T.165 (293T cells, generated in-house)
T2 sequence (P07949 658-1114 G810R): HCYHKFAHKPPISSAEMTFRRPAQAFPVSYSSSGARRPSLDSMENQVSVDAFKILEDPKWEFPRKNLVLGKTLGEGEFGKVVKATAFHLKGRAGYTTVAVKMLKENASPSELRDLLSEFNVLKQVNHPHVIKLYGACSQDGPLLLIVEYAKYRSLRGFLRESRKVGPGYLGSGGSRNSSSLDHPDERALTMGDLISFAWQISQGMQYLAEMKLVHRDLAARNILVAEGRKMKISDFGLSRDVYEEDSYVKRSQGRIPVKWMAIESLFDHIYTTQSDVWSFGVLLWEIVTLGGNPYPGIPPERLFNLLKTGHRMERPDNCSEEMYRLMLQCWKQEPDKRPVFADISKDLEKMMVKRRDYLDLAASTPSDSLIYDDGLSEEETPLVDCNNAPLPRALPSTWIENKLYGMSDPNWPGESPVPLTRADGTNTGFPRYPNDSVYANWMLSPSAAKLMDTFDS
In words: HiBiT-Degradation, RET G810R degradation assay (Nano-Glo HiBiT Lytic), 293T.165 cells. Type of data set: cell-based. The gist of the method:
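HEK293T lines stably expressing HiBiT-tagged RET kinase domain (WT: 293T.144; G810R: 293T.165) were treated with degraders for 6 h in duplicate, 11-point half-log series from 10 μM top dose. Lysis with Nano-Glo HiBiT Lytic reagent, luminescence read; DC50 and Emax (% remaining protein) derived from dose-response curves.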

In data set [3] the test system is phospho-SHC. Briefly: phospho-SHC protein level in CR^2518 brain tumors (western blot). Type of data set: in vivo, mice. Particulars: single IV dose 5 mg/kg or 30 mg/kg, at 5 hours. Here is the method: as §1, §2, §3
A short description of data set [4]: Body weight of mice bearing CR^2518 tumors. Type of data set: in vivo. The following applies: after 14 days of daily treatment, 5 mg/kg IV. Here is the method: For PDX model CR^2518, tumors were first grown in stock mice, then tumor fragments were harvested and inoculated into the right flank of female BALB/c nude mice for tumor development. Tumor volume and body weight were measured twice weekly. Tumor volume was measured in two dimensions using calipers, and volume (mm^3) was calculated using the formula: V=0.5 a×b^2 where a and b are the long and short diameters of the tumor in mm, respectively. Once tumors reached an average volume of 150 mm^3, the animals were divided randomly into groups of 5, stratified to result in about equal average tumor sizes in each treatment group, and dosing was initiated on Day 1
Compound 122 was administered once a day intravenously (IV) at 5 mg/kg for 14 days. Compound 122 was formulated in 40% PEG400 and 60% of 10% hydroxypropyl beta cyclodextrin (HPPCD) in double distilled water, which was also used for the vehicle group. Body weight and tumor volume were measured on a 2× weekly schedule. Data are represented as MTV±SEM.

T1 sequence (P07949 with tags, fused parts or gaps): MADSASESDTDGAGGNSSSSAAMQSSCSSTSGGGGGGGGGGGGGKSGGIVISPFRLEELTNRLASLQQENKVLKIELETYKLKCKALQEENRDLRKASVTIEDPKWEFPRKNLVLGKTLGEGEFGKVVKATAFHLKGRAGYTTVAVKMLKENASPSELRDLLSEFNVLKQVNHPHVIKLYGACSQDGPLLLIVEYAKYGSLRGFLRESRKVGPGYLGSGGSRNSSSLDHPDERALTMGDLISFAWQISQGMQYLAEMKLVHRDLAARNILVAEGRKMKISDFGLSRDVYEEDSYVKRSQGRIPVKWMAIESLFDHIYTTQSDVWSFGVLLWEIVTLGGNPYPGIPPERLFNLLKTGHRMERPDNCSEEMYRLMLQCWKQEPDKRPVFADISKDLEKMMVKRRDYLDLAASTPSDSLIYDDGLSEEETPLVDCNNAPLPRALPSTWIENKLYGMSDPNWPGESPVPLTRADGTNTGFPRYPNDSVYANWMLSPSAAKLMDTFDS
T1 sequence (Q96SW2 whole entry partner, the tested form may be a part): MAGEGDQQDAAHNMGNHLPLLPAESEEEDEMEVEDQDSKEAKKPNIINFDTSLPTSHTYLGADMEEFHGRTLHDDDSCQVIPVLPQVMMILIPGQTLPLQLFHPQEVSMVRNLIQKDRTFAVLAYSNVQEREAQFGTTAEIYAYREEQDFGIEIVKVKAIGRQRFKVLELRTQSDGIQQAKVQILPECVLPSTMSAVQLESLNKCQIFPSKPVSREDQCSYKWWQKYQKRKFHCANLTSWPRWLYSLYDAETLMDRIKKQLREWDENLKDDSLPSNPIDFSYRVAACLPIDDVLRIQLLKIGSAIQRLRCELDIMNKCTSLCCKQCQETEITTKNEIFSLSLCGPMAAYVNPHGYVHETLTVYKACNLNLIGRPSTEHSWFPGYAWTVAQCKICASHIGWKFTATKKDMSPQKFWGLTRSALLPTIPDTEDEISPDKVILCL

For the molecule `CCC1(C(=O)NC(C)C)CCN(c2ccc(-c3nc(-c4cnn([C@H]5CC[C@H](N6CCC(c7ccc(NC8CCC(=O)NC8=O)cc7F)CC6)CC5)c4)cn4ncc(C#N)c34)cn2)CC1` (single isomer, unassigned) [Compound 122, 1-(5-(3-cyano-6-(1-((1r, 4r)-4-(4-(4-((2,6-dioxopiperidin-3-yl)amino)-2-fluorophenyl)piperidin-1-yl)cyclohexyl)-1H-pyrazol-4-yl)pyrazolo[1,5-a]pyrazin-4-yl)pyridin-2-yl)-4-ethyl-N-isopropylpiperidine-4-carboxamide], in data set [1], the “reduction in RET protein levels in brain tumors” value is reported as 75-80%. In data set [2], the “293T.165 RET(KD: 658-1114 G810R) 6.0 hours (IP) [nM]” value is given as “++++ (<50 nM = ++++)”. Also, the Emax in data set [2] (6.0 hours, % remaining protein, read-out: 293T.165 RET(KD: 658-1114 G810R) 6.0 hours (Emax)) is < 30%. For the same molecule, the half-maximal degradation concentration (DC50) in data set [2] (6.0 hours, half-maximal degradation concentration, read-out: 293T.165 RET(KD: 658-1114 G810R) 6.0 hours (DC50)) is < 0.05 µM. For the same molecule, the “reduction in phospho-SHC protein levels in brain tumors” value in data set [3] was 75-80%. Further, in data set [4], the body weight loss entry is reported as “No body weight loss”.
